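Cultured in 96-well plates, cells were exposed to test compound for 48 hours across five concentrations. GI50 = concentration required for 50% inhibition of growth.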 The source made the active and inactive calls. Rule as the data show it: active = GI50 up to about 1.1 µM and inactive = higher.
What was measured:
Experiment in all cases: DTP human tumour cell line panel, 48 h
OVCAR-3 = tested on: OVCAR-3
SF-539 = tested on: SF-539
SF-268 = tested on: SF-268
KM12 = tested on: KM12
SNB-19 = tested on: SNB-19
SK-OV-3 = tested on: SK-OV-3
SNB-75 = tested on: SNB-75
NCI-H460 = tested on: NCI-H460
U-251 = tested on: U-251
HL-60 = tested on: HL-60
Malme-3M = tested on: Malme-3M
HOP-92 = tested on: HOP-92
ACHN = tested on: ACHN
M19-MEL = tested on: M19-MEL
SK-MEL-5 = tested on: SK-MEL-5
SF-295 = tested on: SF-295
NCI-H226 = tested on: NCI-H226
UO-31 = tested on: UO-31
SR = tested on: SR

Measured: GI50

Cc1cc(C)nc(NS(=O)(=O)c2ccc(NC(=O)c3cccc4c(Nc5ccc(S(N)(=O)=O)cc5)c5ccccc5nc34)cc2)n1
inactive: OVCAR-3 9.42 µM | SF-539 3.67 µM | SF-268 6.59 µM | KM12 15.4 µM | SNB-19 4.02 µM | SK-OV-3 15.2 µM | SNB-75 5.46 µM | NCI-H460 44.1 µM | U-251 8.89 µM | HL-60 7.4 µM | Malme-3M 18.2 µM | HOP-92 20.7 µM | ACHN > 100 µM | M19-MEL 13.5 µM | SK-MEL-5 19.1 µM | SF-295 > 66.5 µM | NCI-H226 > 100 µM | UO-31 > 100 µM

COC(=O)C1(F)C(=O)NC(=O)NC1OC (stereo not given)
inactive: OVCAR-3 94.2 µM | SF-539 2.58 µM | SF-268 45.4 µM | KM12 21.6 µM | SNB-19 > 100 µM | SK-OV-3 > 100 µM | SNB-75 39.2 µM | NCI-H460 3.52 µM | U-251 24.5 µM | HL-60 3.09 µM | Malme-3M 34.9 µM | HOP-92 45.7 µM | ACHN 29 µM | M19-MEL 18.7 µM | SK-MEL-5 9.84 µM | SR > 100 µM | SF-295 > 100 µM | NCI-H226 > 100 µM | UO-31 70.8 µM

COc1ccc2c(c1)[n+]([O-])c(C(=O)CC(=O)C(=O)Nc1cccc(Cl)c1C)c(C)[n+]2[O-]
inactive: OVCAR-3 27.3 µM | SF-539 > 100 µM | SF-268 > 100 µM | KM12 > 100 µM | SNB-19 > 100 µM | SK-OV-3 > 100 µM | SNB-75 > 100 µM | NCI-H460 > 100 µM | U-251 > 100 µM | HL-60 44.5 µM | Malme-3M > 100 µM | HOP-92 > 100 µM | ACHN > 100 µM | M19-MEL 42.9 µM | SK-MEL-5 > 100 µM | SR 34 µM | SF-295 > 100 µM | NCI-H226 > 100 µM | UO-31 > 100 µM

CS(=O)(=O)NNS(=O)(=O)c1ccc(Cl)cc1
inactive: OVCAR-3 > 100 µM | SF-539 > 100 µM | KM12 > 100 µM | SNB-19 > 100 µM | SNB-75 > 100 µM | NCI-H460 > 100 µM | U-251 > 100 µM | HL-60 > 100 µM | Malme-3M > 100 µM | ACHN > 100 µM | M19-MEL > 100 µM | SK-MEL-5 > 100 µM | SR 62.8 µM | SF-295 > 100 µM | NCI-H226 11 µM | UO-31 35.6 µM

COC(=O)CCC(NC(=S)N/N=C/c1ccco1)C(=O)OC (stereo not given)
inactive: OVCAR-3 > 100 µM | SF-539 > 100 µM | SF-268 > 100 µM | KM12 > 100 µM | SNB-19 > 100 µM | SK-OV-3 > 100 µM | SNB-75 > 100 µM | NCI-H460 > 100 µM | U-251 > 100 µM | HL-60 > 100 µM | Malme-3M > 100 µM | ACHN > 100 µM | M19-MEL > 100 µM | SK-MEL-5 > 100 µM | SR > 100 µM | SF-295 > 100 µM | NCI-H226 > 100 µM | UO-31 > 100 µM

CCOP(=O)(OCC)/C(C#N)=C/c1ccco1
inactive: SF-539 > 100 µM | SF-268 > 100 µM | KM12 > 100 µM | SK-OV-3 > 100 µM | SNB-75 > 100 µM | NCI-H460 > 100 µM | U-251 > 100 µM | HL-60 > 100 µM | Malme-3M > 100 µM | HOP-92 > 100 µM | ACHN > 100 µM | M19-MEL > 100 µM | SK-MEL-5 > 100 µM | SR > 100 µM | SF-295 > 100 µM | NCI-H226 > 100 µM | UO-31 > 100 µM

CN(C)CC1CCC(=C2CCCC2)C1=O (stereo not given)
inactive: OVCAR-3 13.5 µM | SF-539 20 µM | SF-268 12.4 µM | KM12 10.9 µM | SNB-19 > 63.7 µM | SK-OV-3 > 100 µM | SNB-75 16.2 µM | NCI-H460 21.7 µM | U-251 > 10 µM | HL-60 3.51 µM | Malme-3M 5.62 µM | HOP-92 5 µM | ACHN 8.18 µM | M19-MEL 16.8 µM | SK-MEL-5 17.9 µM | SR 4.47 µM | SF-295 > 100 µM | NCI-H226 17.9 µM | UO-31 18.3 µM

CCCCC#COP(=O)(OCC)OCC
inactive: OVCAR-3 > 100 µM | SF-539 > 100 µM | SF-268 > 100 µM | KM12 > 100 µM | SNB-19 > 100 µM | SK-OV-3 > 100 µM | NCI-H460 > 100 µM | U-251 > 100 µM | HL-60 > 100 µM | Malme-3M > 100 µM | ACHN > 100 µM | M19-MEL > 100 µM | SK-MEL-5 > 100 µM | SR > 100 µM | SF-295 > 100 µM | NCI-H226 > 100 µM | UO-31 > 100 µM

O=C1c2ccccc2C(Br)(Br)c2ccccc21
inactive: OVCAR-3 > 31.6 µM | SF-539 57.8 µM | SF-268 25.5 µM | KM12 > 100 µM | SNB-19 > 31.6 µM | SK-OV-3 > 31.6 µM | SNB-75 14.9 µM | NCI-H460 > 31.6 µM | U-251 > 31.6 µM | HL-60 > 31.6 µM | Malme-3M > 31.6 µM | HOP-92 > 100 µM | ACHN > 31.6 µM | M19-MEL > 31.6 µM | SK-MEL-5 > 31.6 µM | SR > 31.6 µM | SF-295 > 31.6 µM | NCI-H226 > 31.6 µM | UO-31 > 31.6 µM

Cc1ccccc1/N=C/c1ccc(N(CCC#N)S(=O)(=O)c2ccccc2)cc1
inactive: OVCAR-3 > 100 µM | SF-539 > 100 µM | SF-268 > 100 µM | KM12 > 100 µM | SNB-19 > 100 µM | SK-OV-3 > 100 µM | SNB-75 > 100 µM | NCI-H460 > 100 µM | U-251 > 100 µM | HL-60 32.4 µM | Malme-3M > 100 µM | HOP-92 > 100 µM | ACHN > 100 µM | M19-MEL > 100 µM | SK-MEL-5 > 100 µM | SR > 100 µM | SF-295 > 100 µM | NCI-H226 > 100 µM | UO-31 > 100 µM

COC(=O)C1=C(c2ccc(Cl)cc2)C(O)NC(NN)=N1 (stereo not given)
inactive: OVCAR-3 > 100 µM | SF-539 > 100 µM | SF-268 > 100 µM | KM12 > 100 µM | SNB-19 > 100 µM | SK-OV-3 > 100 µM | NCI-H460 > 100 µM | U-251 > 100 µM | HL-60 > 100 µM | Malme-3M > 100 µM | HOP-92 > 100 µM | ACHN > 100 µM | M19-MEL > 100 µM | SK-MEL-5 > 100 µM | SR > 100 µM | SF-295 > 100 µM | NCI-H226 > 100 µM | UO-31 > 100 µM

CC12CCc3ccccc3C1=NNC(=O)C2 (stereo not given)
inactive: OVCAR-3 > 100 µM | SF-539 > 100 µM | SF-268 > 100 µM | KM12 > 100 µM | SNB-19 > 100 µM | SK-OV-3 > 100 µM | SNB-75 > 100 µM | NCI-H460 > 100 µM | U-251 > 100 µM | HL-60 82 µM | Malme-3M > 100 µM | HOP-92 > 100 µM | ACHN > 100 µM | M19-MEL > 100 µM | SK-MEL-5 > 100 µM | SF-295 > 100 µM | NCI-H226 > 100 µM | UO-31 > 100 µM

CC(=O)OCC(=O)[C@@]1(O)CC[C@H]2[C@@H]3CCC4=CC(=O)[C@H](C)C[C@]4(C)[C@H]3[C@@H](O)C[C@@]21C
inactive: OVCAR-3 > 100 µM | SF-539 > 100 µM | SF-268 > 100 µM | KM12 > 100 µM | SNB-19 > 100 µM | SK-OV-3 > 100 µM | SNB-75 > 100 µM | NCI-H460 > 100 µM | U-251 > 100 µM | HL-60 > 100 µM | Malme-3M > 100 µM | HOP-92 > 100 µM | ACHN > 100 µM | M19-MEL > 100 µM | SK-MEL-5 > 100 µM | SR > 100 µM | SF-295 > 100 µM | NCI-H226 > 100 µM

CCOC(=O)c1c(-c2ccccc2)oc(-c2ccccc2)c1C(=O)OCC
inactive: OVCAR-3 > 100 µM | SF-539 > 100 µM | SF-268 > 100 µM | KM12 > 100 µM | SNB-19 > 100 µM | SK-OV-3 > 100 µM | SNB-75 > 100 µM | U-251 > 100 µM | HL-60 33.6 µM | Malme-3M > 100 µM | HOP-92 > 100 µM | ACHN > 100 µM | M19-MEL 56.4 µM | SK-MEL-5 56.5 µM | SR 68.2 µM | SF-295 > 100 µM | NCI-H226 > 100 µM | UO-31 > 100 µM

Cc1ccc2c(c1)C(c1cccc3ccccc13)OC2=O (stereo not given)
inactive: OVCAR-3 > 100 µM | SF-268 > 100 µM | KM12 99.1 µM | SNB-19 64.7 µM | SK-OV-3 86.3 µM | SNB-75 36.4 µM | NCI-H460 > 100 µM | U-251 58.2 µM | HL-60 > 100 µM | Malme-3M 51.6 µM | ACHN 92.9 µM | M19-MEL > 100 µM | SK-MEL-5 31.4 µM | SR > 100 µM | SF-295 61 µM | NCI-H226 42.9 µM | UO-31 > 100 µM

Source: ChEMBL document CHEMBL1201862, “PubChem BioAssay data set” (2004)
